In article PMC9024338, “Bruceine H Mediates EGFR-TKI Drug Persistence in NSCLC by Notch3-Dependent β-Catenin Activating FOXO3a Signaling” (Frontiers in Oncology, 2022):

Assay: Toxicity study in nude mice: organ index, blood routine, serum biochemistry
Format: in vivo
Procedure: At the end of the experiment, blood samples were taken and analyzed by blood routine. […] The lungs and spleen were weighed and recorded. H&E staining of the heart, liver, spleen, lungs, and kidneys was performed to evaluate the cytotoxic effects of BH.

[1] = nude mice serum, mean ± SD (Table S4)
[2] = nude mice, routine blood (Table S3)
[3] = nude mice, Gef 25, BH 2.5, Gef + BH 25 + 2.5 mg×kg^-1×d^-1, X±S

Molecule `CC1=CC(=O)[C@@H](O)[C@]2(C)[C@H]3[C@@H](O)[C@H](O)[C@@]4(CO)OC[C@@]35[C@@H](C[C@@H]12)OC(=O)[C@H](O)[C@]54O` [BH, Bruceine H] has an HDL-C [1] of 1.14 ± 0.18 mmol/L, an LDL-C [1] of 1.40 ± 0.08 mmol/L and a TC [1] of 3.25 ± 0.21 mmol/L. For the same molecule, the TG [1] was 0.70 ± 0.16 mmol/L, the GR [2] was 3.36±2.394 ×10^9/L and the “GR (%)” value [2] was 80.567±11.274%. The HCT [2] was 62.867±5.658%, the HGB [2] was 172.333 ± 12.014 g/L and the LY [2] was 0.920±0.401 ×10^9/L. The “LY (%)” value [2] was 14.7±6.165%, the MCH [2] was 15.567 ± 0.289 pg and the MCHC [2] was 296.333 ± 10.970 g/L. For the same molecule, the MCV [2] was 52.567 ± 1.823 fL, the MO [2] was 0.242±0.045 ×10^9/L and the “MO (%)” value [2] was 5.043±1.086%. The MPV [2] was 7.267 ± 0.208 fL, the PCT [2] was 0.753±0.195 mL/L and the PLT [2] was 1030±241.156 ×10^9/L. For the same molecule, the RBC [2] was 13.193±1.792 ×10^12/L, the WBC [2] was 6.633±2.371 ×10^8/L and the Lung index [3] was 32.463 ± 2.078 g/kg. The Spleen index [3] was 5.949 ± 0.526 g/kg.
